What all share (format): organism-based
Assay [1] has as its target T1, D(1A) dopamine receptor (Rattus norvegicus, UniProt P18901). As to the kind of experiment: In vivo inhibitory activity against dopamine (D1) receptor in rat caudate-putamen tissue.
Assay [2] has as its target T2, D(2) dopamine receptor (Rattus norvegicus, UniProt P61169). As to the kind of experiment: In vivo inhibitory activity against dopamine (D2) receptor in rat caudate-putamen tissue.
Assay [3] concerns the target T2, D(2) dopamine receptor. Description: In vivo binding affinity against dopamine (D2) receptor in rat caudate-putamen tissue using [3H]nemonapride as radioligand.
Assay [4] has as its target T1, D(1A) dopamine receptor. Description: In vivo binding affinity against dopamine (D1) receptor in rat caudate-putamen tissue using [3H]SCH-23390 as radioligand.

T1 sequence (P18901 whole entry): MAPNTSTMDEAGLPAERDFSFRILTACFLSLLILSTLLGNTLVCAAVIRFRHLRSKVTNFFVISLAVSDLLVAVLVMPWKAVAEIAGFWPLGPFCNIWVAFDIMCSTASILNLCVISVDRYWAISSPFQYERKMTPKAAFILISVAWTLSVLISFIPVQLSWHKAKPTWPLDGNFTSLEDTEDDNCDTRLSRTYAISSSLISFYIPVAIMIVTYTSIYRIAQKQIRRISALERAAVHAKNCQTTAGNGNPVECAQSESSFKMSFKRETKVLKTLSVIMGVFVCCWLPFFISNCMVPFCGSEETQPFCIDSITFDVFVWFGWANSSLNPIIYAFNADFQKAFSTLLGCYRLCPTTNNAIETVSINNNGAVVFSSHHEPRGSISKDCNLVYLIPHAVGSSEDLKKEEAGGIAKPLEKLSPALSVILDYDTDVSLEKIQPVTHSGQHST
T2 sequence (P61169 whole entry): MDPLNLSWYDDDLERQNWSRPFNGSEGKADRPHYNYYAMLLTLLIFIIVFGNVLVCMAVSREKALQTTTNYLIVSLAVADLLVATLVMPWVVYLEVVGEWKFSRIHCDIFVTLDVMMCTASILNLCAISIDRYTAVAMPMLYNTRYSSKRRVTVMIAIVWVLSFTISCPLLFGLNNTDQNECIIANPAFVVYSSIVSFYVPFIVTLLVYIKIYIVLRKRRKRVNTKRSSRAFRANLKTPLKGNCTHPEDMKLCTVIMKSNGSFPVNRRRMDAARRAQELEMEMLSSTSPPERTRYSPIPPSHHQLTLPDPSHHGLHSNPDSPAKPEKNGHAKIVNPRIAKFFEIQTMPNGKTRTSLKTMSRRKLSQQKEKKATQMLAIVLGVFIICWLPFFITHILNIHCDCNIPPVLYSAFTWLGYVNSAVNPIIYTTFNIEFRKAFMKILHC

In general, IC50 refers to the concentration needed to halve the response being measured. Read a high IC50 as weaker potency in that assay. `CCN1CCC[C@H]1CNC(=O)c1c(O)ccc(I)c1OC`: the values for the half-inhibitory concentration (IC50) against D(1A) dopamine receptor [1] and at D(2) dopamine receptor [2] were above 10000 nM and 196 nM, respectively.

Take `CCN1CCC[C@H]1CNC(=O)c1c(OC)ccc(I)c1O` [IOLOPRIDE]: the IC50 against D(1A) dopamine receptor [1] is above 10000 nM; on D(2) dopamine receptor [3] it was 1.2 nM; on D(1A) dopamine receptor [4], above 10000 nM; on D(2) dopamine receptor [2], 1.71 nM.

The compound `CCN1CCC[C@H]1CNC(=O)c1c(O)c(Cl)cc(Cl)c1OC` [RACLOPRIDE] came in with an IC50 on D(1A) dopamine receptor [1] above 10000 nM.

For the origin of these results see ChEMBL document CHEMBL1144983, “Synthesis and affinity of a possible byproduct of electrophilic radiolabeling of [123I]IBZM” (Bioorg Med Chem Lett, 2003).
